Tested on: GLP1R‐neurons
Assay: MEA recording of neuronal firing, GLP1R‐neurons
Assay type: cell-based, human
Settings: 10 nM GLP1; day 27; 0 nM n = 31 electrodes, 10 nM n = 34 electrodes; 5 min before and after ligand addition
Experimental: Before initiating differentiation, the iPSCs (1–2 × 10^5 cells·cm^−2; Cell lines and cell culture section) were transferred to 6‐well plates (Corning, Inc., Corning, NY, USA) coated with 2‐methacryloyloxyethyl phosphorylcholine (MPC) polymer (Lipidure CM5206E; NOF, Tokyo, Japan). The cells were maintained in mTeSR1 cGMP medium containing 10 μM Y‐27632 (Fujifilm Wako Pure Chemical Industries) for 2 or 3 days to form embryoid body (EBs) in a rotary shaker at 95 r.p.m. (OS‐762RC; Optime, Tokyo, Japan). Subsequently, iPSCs were differentiated into neural crest cells (NCCs), as previously reported. Briefly, NCCs were induced from Ebs using knockout serum replacement (KSR) medium and N2 medium with graded addition of nerve growth factors and signaling factors. KSR medium was composed of DMEM‐F12 (Fujifilm Wako Pure Chemical Industries), 20% KSR (Thermo Fisher Scientific), 1% NEAA, 1% monothioglycerol (Fujifilm Wako Pure Chemical Industries), and 1% P/S. N2 medium consisted of DMEM‐F12, 1% N2 supplement (Fujifilm Wako Pure Chemical Industries), 1% NEAA, and 1% P/S. When EB formation was considered day 0 of induction, the medium was changed at days 2, 5, 7, 9, and 12. […]

## GLP1: GLP1 (4280‐v; Peptide Institute, Inc.); GLP1 (7–37) in Ca2+ imaging (HAEGTFTSDVSSYLEGQAAKEFIAWLVKGRG; Glucagon-like peptide 1(7-37); UniProt P01275 98-128, looked up)
  Change rate of firing frequency: increased the change rate of firing frequency
